Data published in a polymer gas permeability compilation.

SMILES | CH4 permeability | CO2 permeability | H2 permeability | N2 permeability | O2 permeability
*/C(C)=C(/*)[Si](C)(C)C (repeat unit) | 15000 Barrer | 28600 Barrer | 15000 Barrer | 6600 Barrer | 9000 Barrer
*/C=C/C1CC(*)CC1[Si](C)(C)C[Si](C)(C)C (repeat unit) | 8.5 Barrer | 67 Barrer | 73 Barrer | 3.7 Barrer | 16 Barrer
*/C=C/C1CCC(*)C1 (repeat unit) | 2.5 Barrer | 15.4 Barrer | 21 Barrer | 1.5 Barrer | 2.8 Barrer
*/N=C1/c2ccc(C(c3ccc4c(c3)-c3nc5cc(Oc6ccc(*)c(*)c6)ccc5n3C4=O)(C(F)(F)F)C(F)(F)F)cc2C(=O)N1* (repeat unit) | 0.54 Barrer | 27.6 Barrer | – | 1.2 Barrer | 7.9 Barrer
*=CC1CC(C=*)C(C(F)(F)F)(C(F)(F)F)C1(F)F (repeat unit) | 9.54 Barrer | 102 Barrer | – | 10.7 Barrer | 27.7 Barrer
*=CC1CCC(C=*)C1 (repeat unit) | 2.5 Barrer | 15.4 Barrer | 21 Barrer | 1.5 Barrer | 2.8 Barrer
*C(C)=C(*)[Si](C)(C)C (repeat unit) | 14500 Barrer | 31900 Barrer | 15500 Barrer | 5650 Barrer | 12200 Barrer
*C(F)(F)C(*)(F)F (repeat unit) | 10 Barrer | 12.7 Barrer | – | – | 4.9 Barrer
*C1C(*)C2CC1C1C2C([Si](C)(C)C)C1[Si](C)(C)C (repeat unit) | 3310 Barrer | 11300 Barrer | 4090 Barrer | 1240 Barrer | 2380 Barrer
*C1C2CC(C1*)C([Si](C)(C)C)C2 (repeat unit) | 1090 Barrer | – | 6700 Barrer | – | 1700 Barrer
*C1C2CC(CF)C(C2)C1* (repeat unit) | 13 Barrer | 200 Barrer | 166 Barrer | 17 Barrer | 50 Barrer
*C=C(*)c1cccc(O[Si](C)(C)C(C)(C)C)c1 (repeat unit) | 12 Barrer | 58 Barrer | 64 Barrer | 7.6 Barrer | 17 Barrer
*CC(*)(C)C(=O)OCC (repeat unit) | 0.347 Barrer | 6.03 Barrer | 21.8 Barrer | 0.276 Barrer | 1.52 Barrer
*CC(*)(C)C(=O)OCC(F)(F)C(F)(F)C(F)(F)C(F)(F)C(F)(F)C(F)(F)C(F)(F)F (repeat unit) | 14 Barrer | 130 Barrer | 82 Barrer | 15 Barrer | 30 Barrer
*CC(*)(C)C(=O)OCCOCC (repeat unit) | 1.23 Barrer | 8.56 Barrer | – | 0.385 Barrer | 1.45 Barrer
*CC(*)(C)c1ccccc1 (repeat unit) | 0.14 Barrer | 3 Barrer | – | 0.15 Barrer | 0.82 Barrer
*CC(*)(F)F (repeat unit) | 0.02 Barrer | 0.517 Barrer | 0.538 Barrer | 0.0223 Barrer | 0.0826 Barrer
*CC(*)C(=O)OC (repeat unit) | 0.262 Barrer | 8.19 Barrer | 10.6 Barrer | 0.213 Barrer | 1.06 Barrer
*CC(*)C(=O)OCC (repeat unit) | 14.9 Barrer | 176 Barrer | 60.4 Barrer | 6.46 Barrer | 19 Barrer
*CC(*)C(=O)OCCCCCCCCCC (repeat unit) | 47.8 Barrer | 261 Barrer | 92.7 Barrer | 19 Barrer | 47.6 Barrer
*CC(*)OC(=O)c1ccc(C)cc1 (repeat unit) | 0.417 Barrer | 6.73 Barrer | – | 0.339 Barrer | 1.72 Barrer
*CC(*)[Si](C)(C)C (repeat unit) | 18 Barrer | 190 Barrer | 200 Barrer | 11 Barrer | 44 Barrer
*CC(*)c1ccc(C)cc1 (repeat unit) | 2.2 Barrer | 29.8 Barrer | – | 1.5 Barrer | 7.2 Barrer
*CC(*)c1ccc(Cl)cc1 (repeat unit) | 0.26 Barrer | 4.3 Barrer | – | 0.23 Barrer | 1.2 Barrer
*CC(*)c1ccc(OC(C)=O)cc1 (repeat unit) | 0.99 Barrer | 16.3 Barrer | – | 0.64 Barrer | 3.1 Barrer

SMILES | CH4 permeability | CO2 permeability | H2 permeability | N2 permeability | O2 permeability
*CC(*)c1ccc(OC)cc1 (repeat unit) | 0.91 Barrer | 18.9 Barrer | – | 0.61 Barrer | 2.6 Barrer
*CC(*)c1ccc([Si](C)(C)C)cc1 (repeat unit) | 34 Barrer | 227 Barrer | 182 Barrer | 16 Barrer | 56 Barrer
*CC(C)C(=O)OC(C)C(*)=O (repeat unit) | 1 Barrer | 0.905 Barrer | – | 0.04 Barrer | 0.26 Barrer
*CC* (repeat unit) | 3.85 Barrer | 7.32 Barrer | – | 0.237 Barrer | 0.735 Barrer
*CC1CC(C*)C2C1C([Si](O[Si](C)(C)C)(O[Si](C)(C)C)O[Si](C)(C)C)C2[Si](O[Si](C)(C)C)(O[Si](C)(C)C)O[Si](C)(C)C (repeat unit) | 215 Barrer | 840 Barrer | 460 Barrer | 75 Barrer | 220 Barrer
*CCCC* (repeat unit) | 13 Barrer | 48.4 Barrer | – | 4 Barrer | 11.3 Barrer
*CCCCO* (repeat unit) | 22.5 Barrer | 170 Barrer | 36 Barrer | 8.85 Barrer | 21.5 Barrer
*CCC[Si](*)(C)C (repeat unit) | 8.4 Barrer | – | – | 3 Barrer | 9.5 Barrer
*CCOC(=O)c1ccc(C(=O)O*)cc1 (repeat unit) | 3 Barrer | 0.173 Barrer | – | 0.013 Barrer | 0.045 Barrer
*CC[Si](C)(C)c1ccc([Si](*)(C)C)cc1 (repeat unit) | 0.53 Barrer | 4.01 Barrer | – | 0.257 Barrer | 1.11 Barrer
*CN1CN(*)c2cc3c(cc21)C1(C(C)C)c2ccccc2C3(C(C)C)c2cc(*)c(*)cc21 (repeat unit) | 215 Barrer | – | 4740 Barrer | 188 Barrer | 1070 Barrer
*N=P(*)(C)c1ccccc1 (repeat unit) | 0.7 Barrer | 6.5 Barrer | – | 0.6 Barrer | 1.8 Barrer
*NC(=O)c1ccc(C(c2ccc(C(=O)O)c(C(=O)Nc3cc(Oc4ccc(*)c(N)c4)ccc3N)c2)(C(F)(F)F)C(F)(F)F)cc1C(=O)O (repeat unit) | 0.087 Barrer | 3.69 Barrer | – | 0.17 Barrer | 0.97 Barrer
*NCC(C)(C)CC(C)CCNC(=O)c1ccc(C(*)=O)cc1 (repeat unit) | 0.018 Barrer | 0.33 Barrer | – | 0.016 Barrer | 0.092 Barrer
*Nc1c(C)cc(C(C)(C)c2cc(C)c(NC(=O)c3ccc(Oc4cc(C(C)(C)C)c(Oc5ccc(C(*)=O)cc5)cc4C(C)(C)C)cc3)c(C)c2)cc1C (repeat unit) | 2.24 Barrer | 43 Barrer | – | 1.73 Barrer | 9.38 Barrer
*Nc1ccc(C(c2ccc(NC(=O)c3ccc(Oc4cc(C(C)(C)C)c(Oc5ccc(C(*)=O)cc5)cc4C(C)(C)C)cc3)cc2)(C(F)(F)F)C(F)(F)F)cc1 (repeat unit) | 1.24 Barrer | 36 Barrer | – | 1.51 Barrer | 7.88 Barrer
*Nc1ccc(C(c2ccc(NC(=O)c3cccc(C(*)=O)c3)cc2)(C(F)(F)F)C(F)(F)F)cc1 (repeat unit) | 0.2 Barrer | 9 Barrer | 29 Barrer | 0.42 Barrer | 2.4 Barrer
*Nc1ccc(Oc2c(F)c(F)c(Oc3ccc(NC(=O)CN4C(=O)c5ccc(C(*)=O)cc5C4=O)cc3)c(F)c2F)cc1 (repeat unit) | 0.013 Barrer | 1.27 Barrer | – | 0.071 Barrer | 0.284 Barrer
*Nc1ccc(S(=O)(=O)c2ccc(NC(=O)c3cccc(C(*)=O)c3)cc2)cc1 (repeat unit) | 0.014 Barrer | 0.78 Barrer | 4.3 Barrer | 0.031 Barrer | 0.19 Barrer
*Nc1cccc(NC(=O)c2ccc(C(c3ccc(C(*)=O)cc3)(C(F)(F)F)C(F)(F)F)cc2)c1 (repeat unit) | 0.24 Barrer | 8.4 Barrer | 23 Barrer | 0.4 Barrer | 2.2 Barrer
*OC(=O)Oc1c(C)cc(C(C)(C)c2cc(C)c(*)c(C)c2)cc1C (repeat unit) | 0.955 Barrer | 19.6 Barrer | – | 1.07 Barrer | 5.54 Barrer
*OC(=O)Oc1ccc(C(=C(Cl)Cl)c2ccc(*)cc2)cc1 (repeat unit) | 0.27 Barrer | 6.5 Barrer | 11.3 Barrer | 0.26 Barrer | 1.4 Barrer
*OC(=O)Oc1ccc(C2(c3ccc(*)cc3)CC3CCC2C3)cc1 (repeat unit) | 0.48 Barrer | 9.1 Barrer | 22 Barrer | 0.47 Barrer | 2.4 Barrer
*OC(=O)Oc1ccc(C2(c3ccc(*)cc3)CCCCC2)cc1 (repeat unit) | 0.092 Barrer | 2.2 Barrer | 9.1 Barrer | 0.105 Barrer | 0.6 Barrer
*OC(=O)Oc1ccc(C2(c3ccc(*)cc3)c3ccccc3-c3ccccc32)cc1 (repeat unit) | 0.581 Barrer | 15.1 Barrer | – | 0.592 Barrer | 3.18 Barrer
